Measurements taken from PMC12638379, “An innovative approach to development of new pyrazolylquinolin-2-one hybrids as dual EGFR and BRAF^V600E inhibitors” (Molecular Diversity, 2025).
“And” between values parts separate entries of the source, which are not always exact repeats. Equal entries are not always repeated. Where two headings read alike, the source gives them in different places.

Experiments:
EGFR = molecular target: T1, EGFR (Homo sapiens, UniProt P00533); assay: EGFR inhibitory assay; assay type: biochemical; settings: for %inh: EGFR, unit not given
T1 construct: EGFR cytoplasmic domain (EGFR-CD, amino acids 645–1186); His6 (N); made in house; host or cells: Sf-9 insect cells (baculovirus)

[1] = test system: leukemia (MOLT-4) cell line; assay: MTT antiproliferative assay, MOLT-4; assay type: cell-based, human; settings: for IC50: read-out: Antiproliferative activity IC50 ± SEM, MOLT-4
Experimental: (§1) After 24 h of culture incubation and supernatants discarded.

NCI 60 cancer cell lines = assay: NCI anticancer screening over a panel of 60 cancer cells, single concentration 10 µM; assay type: cell-based, human; settings: for inhibition at 10 µM: Homo sapiens, read-out: % Growth Inhibition (GI %)
Procedure, shortened: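 Run under the NCI Compound Evaluation Branch protocol, each compound was tested once at 10 µM. The panel comprised 60 cancer cell lines of diverse tissue origin, including leukemia, lung, colon, CNS, renal, ovarian, breast and prostate.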

[2] = MTT cytotoxicity on normal cell line WI-38; settings: human, WI-38 normal cells, % viability
normal cell line WI-38 = assay: MTT cytotoxicity on normal cell line WI-38
[3] = test system: lung cancer (HOP-92) cell line; assay: MTT antiproliferative assay, HOP-92; assay type: cell-based, human
Experimental: […]. […] See Appendix B.
as §1

BRAF^V600E = BRAF^V600E (Homo sapiens, UniProt P15056, V600E); assay: BRAF^V600E inhibitory assay (B-Raf (V600E) Kinase Assay); assay type: biochemical; settings: read-out: BRAF^V600E inhibition IC50 ± SEM
BRAF^V600E, sequence (P15056 whole entry V600E): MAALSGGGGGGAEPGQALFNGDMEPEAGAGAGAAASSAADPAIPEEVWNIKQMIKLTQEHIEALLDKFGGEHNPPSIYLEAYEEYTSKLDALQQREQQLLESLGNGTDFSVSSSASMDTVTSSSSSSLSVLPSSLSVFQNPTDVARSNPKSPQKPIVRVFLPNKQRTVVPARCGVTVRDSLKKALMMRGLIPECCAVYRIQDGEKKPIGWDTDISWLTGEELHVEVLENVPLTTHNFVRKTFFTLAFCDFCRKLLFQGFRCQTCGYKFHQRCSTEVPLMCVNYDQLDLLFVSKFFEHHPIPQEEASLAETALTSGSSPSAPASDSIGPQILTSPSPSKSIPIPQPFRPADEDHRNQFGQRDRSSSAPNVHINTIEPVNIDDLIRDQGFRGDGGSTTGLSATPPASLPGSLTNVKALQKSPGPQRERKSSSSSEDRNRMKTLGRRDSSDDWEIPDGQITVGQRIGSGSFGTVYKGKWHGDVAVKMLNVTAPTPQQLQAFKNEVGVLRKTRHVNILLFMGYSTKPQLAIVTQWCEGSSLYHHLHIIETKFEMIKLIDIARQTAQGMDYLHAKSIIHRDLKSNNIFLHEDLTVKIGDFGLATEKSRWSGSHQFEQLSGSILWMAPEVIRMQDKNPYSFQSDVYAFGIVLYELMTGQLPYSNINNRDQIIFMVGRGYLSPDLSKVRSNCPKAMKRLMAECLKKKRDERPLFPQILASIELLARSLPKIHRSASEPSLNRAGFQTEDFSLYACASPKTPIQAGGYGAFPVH

T1 sequence (P00533 669-1210): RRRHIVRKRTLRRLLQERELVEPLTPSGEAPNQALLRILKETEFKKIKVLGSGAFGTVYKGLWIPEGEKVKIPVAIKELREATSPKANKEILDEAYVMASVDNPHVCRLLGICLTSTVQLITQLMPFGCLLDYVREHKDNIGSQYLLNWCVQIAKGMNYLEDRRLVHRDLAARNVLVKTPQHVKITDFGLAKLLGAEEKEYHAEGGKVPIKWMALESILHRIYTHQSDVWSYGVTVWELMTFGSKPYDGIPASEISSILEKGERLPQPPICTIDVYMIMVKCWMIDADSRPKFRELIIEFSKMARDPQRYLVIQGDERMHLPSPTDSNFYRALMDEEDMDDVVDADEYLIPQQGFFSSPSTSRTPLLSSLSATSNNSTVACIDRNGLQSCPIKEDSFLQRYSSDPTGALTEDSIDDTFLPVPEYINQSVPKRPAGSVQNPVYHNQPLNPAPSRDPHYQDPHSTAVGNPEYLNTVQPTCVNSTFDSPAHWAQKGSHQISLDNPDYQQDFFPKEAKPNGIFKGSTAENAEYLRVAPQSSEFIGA

In the case of C/C(=N\Nc1ccc(S(N)(=O)=O)cc1)c1cnn(-c2cc(=O)[nH]c3ccc(Br)cc23)c1C [Compound 4e, (E)-4-(2-(1-(1-(6-bromo-2-oxo-1,2-dihydroquinolin-4-yl)-5-methyl-1H-pyrazol-4-yl)ethylidene)hydrazineyl)benzenesulfonamide], the “%inh” value (EGFR; conc 0.01 (log -2)) is reported as 37%, the “%inh” value (EGFR; conc 0.1 (log -1)) is reported as 50.6% and the “%inh” value (EGFR; conc 1 (log 0)) is reported as 75.8%. For the same compound, the “%inh” value (EGFR; conc 10 (log 1)) was 88.1%, the “%inh” value (EGFR; conc 100 (log 2)) was 94.2% and the IC50 (EGFR; read-out: EGFR inhibition IC50 ± SEM) was 0.055 ± 0.002 µM. For the same compound, the IC50 ([1]; Homo sapiens, MOLT-4, MTT) was 8.62 ± 0.34 µM, the “% viability” value ([1]; MOLT-4, 0.4ug (log conc. -0.41)) was 65.87% and the “% viability” value ([1]; MOLT-4, 1.6ug (log conc. 0.193), listed as Ws5) was 58.42% and 58.419%. For the same compound, the “% viability” value ([1]; MOLT-4, 6.3ug (log conc. 0.796), listed as Ws5) was 52.84% and 52.844%, the “% viability” value ([1]; MOLT-4, 25ug (log conc. 1.398), listed as Ws5) was 44.14% and 44.141% and the “% viability” value ([1]; MOLT-4, 100ug (log conc. 2)) was 35.495%. For the same compound, the IC50 ([1]; MTT) was 8.02 ± 0.31 µM, the “activity in NCI screening (mean GI%)” value (NCI 60 cancer cell lines; 10 µM, over the NCI cancer cell lines) was “remarkable activity over the most NCI cancer cell lines” and the inhibition at 10 µM (NCI 60 cancer cell lines; 786-0, Renal cancer 786-0, 10 μM) was 14.1%. For the same compound, the inhibition at 10 µM (NCI 60 cancer cell lines; A498, Renal cancer A498, 10 μM) was under 5%, the inhibition at 10 µM (NCI 60 cancer cell lines; A549, Non-small cell lung cancer A549/ATCC, 10 μM) was under 5% and the inhibition at 10 µM (NCI 60 cancer cell lines; ACHN, Renal cancer ACHN, 10 μM) was 19%. For the same compound, the inhibition at 10 µM (NCI 60 cancer cell lines; BT-549, Breast cancer BT-549, 10 μM) was 62.3%, the inhibition at 10 µM (NCI 60 cancer cell lines; CAKI-1, Renal cancer CAKI-1, 10 μM) was 23.3% and the inhibition at 10 µM (NCI 60 cancer cell lines; CCRF-CEM, Leukemia CCRF-CEM, 10 μM) was 91.8%. For the same compound, the inhibition at 10 µM (NCI 60 cancer cell lines; COLO 205, Colon cancer COLO 205, 10 μM) was 14.5%, the inhibition at 10 µM (NCI 60 cancer cell lines; DU-145, Prostate cancer DU-145, 10 μM) was 22.1% and the inhibition at 10 µM (NCI 60 cancer cell lines; EKVX, Non-small cell lung cancer EKVX, 10 μM) was 27.9%. The inhibition at 10 µM (NCI 60 cancer cell lines; HCC 2998, Colon cancer HCC-2998, 10 μM) was 26.6%, the inhibition at 10 µM (NCI 60 cancer cell lines; HCT-15, Colon cancer HCT-15, 10 μM) was 8.8% and the inhibition at 10 µM (NCI 60 cancer cell lines; HCT-116, Colon cancer HCT-116, 10 μM) was 41.5%. For the same compound, the inhibition at 10 µM (NCI 60 cancer cell lines; HL-60, Leukemia HL-60(TB), 10 μM) was 15.2%, the inhibition at 10 µM (NCI 60 cancer cell lines; HOP-62, Non-small cell lung cancer HOP-62, 10 μM) was 36.6% and the inhibition at 10 µM (NCI 60 cancer cell lines; HOP-92, Non-small cell lung cancer HOP-92, 10 μM) was 102%. It also gave an inhibition at 10 µM (NCI 60 cancer cell lines; HT-29, Colon cancer HT29, 10 μM) of under 5%, an inhibition at 10 µM (NCI 60 cancer cell lines; Hs-578T, Breast cancer HS 578T, 10 μM) of 71.6% and an inhibition at 10 µM (NCI 60 cancer cell lines; IGROV-1, Ovarian cancer IGROV1, 10 μM) of 43%. For the same compound, the inhibition at 10 µM (NCI 60 cancer cell lines; K562, Leukemia K-562, 10 μM) was 65%, the inhibition at 10 µM (NCI 60 cancer cell lines; KM12, Colon cancer KM12, 10 μM) was 46.3% and the inhibition at 10 µM (NCI 60 cancer cell lines; LOX IMVI, Melanoma LOX IMVI, 10 μM) was 61.8%. For the same compound, the inhibition at 10 µM (NCI 60 cancer cell lines; Leukemia SR, 10 μM) was 95.9%, the inhibition at 10 µM (NCI 60 cancer cell lines; MCF7, Breast cancer MCF7, 10 μM) was 76.8% and the inhibition at 10 µM (NCI 60 cancer cell lines; MDA-MB-231, Breast cancer MDA-MB-231/ATCC, 10 μM) was 68.5%. It also gave an inhibition at 10 µM (NCI 60 cancer cell lines; MDA-MB-435, Melanoma MDA-MB-435, 10 μM) of 95.6%, an inhibition at 10 µM (NCI 60 cancer cell lines; MDA-MB-468, Breast cancer MDA-MB-468, 10 μM) of 111% and an inhibition at 10 µM (NCI 60 cancer cell lines; MOLT-4, Leukemia MOLT-4, 10 μM) of 81.5%. The inhibition at 10 µM (NCI 60 cancer cell lines; Melanoma M14, 10 μM) was 26.9%, the inhibition at 10 µM (NCI 60 cancer cell lines; Melanoma MALM-3M, 10 μM) was 78.3% and the inhibition at 10 µM (NCI 60 cancer cell lines; NCI-H23, Non-small cell lung cancer NCI-H23, 10 μM) was 30.1%. For the same compound, the inhibition at 10 µM (NCI 60 cancer cell lines; NCI-H226, Non-small cell lung cancer NCI-H226, 10 μM) was 37.7%, the inhibition at 10 µM (NCI 60 cancer cell lines; NCI-H322M, Non-small cell lung cancer NCI-H322M, 10 μM) was 22.3% and the inhibition at 10 µM (NCI 60 cancer cell lines; NCI-H460, Non-small cell lung cancer NCI-H460, 10 μM) was 22.1%. The inhibition at 10 µM (NCI 60 cancer cell lines; NCI-H522, Non-small cell lung cancer NCI-H522, 10 μM) was 94.9%, the inhibition at 10 µM (NCI 60 cancer cell lines; NCI/ADR-RES, Ovarian cancer NCI/ADR-RES, 10 μM) was 9.87% and the inhibition at 10 µM (NCI 60 cancer cell lines; OVCAR-3, Ovarian cancer OVCAR-3, 10 μM) was 43.8%. For the same compound, the inhibition at 10 µM (NCI 60 cancer cell lines; OVCAR-4, Ovarian cancer OVCAR-4, 10 μM) was 32.3%, the inhibition at 10 µM (NCI 60 cancer cell lines; OVCAR-5, Ovarian cancer OVCAR-5, 10 μM) was 18.6% and the inhibition at 10 µM (NCI 60 cancer cell lines; OVCAR-8, Ovarian cancer OVCAR-8, 10 μM) was 19.5%. It also gave an inhibition at 10 µM (NCI 60 cancer cell lines; Prostate cancer PC-3, 10 μM) of 41.6%, an inhibition at 10 µM (NCI 60 cancer cell lines; RPMI-8226, Leukemia RPMI-8226, 10 μM) of 25.7% and an inhibition at 10 µM (NCI 60 cancer cell lines; RXF 393, Renal cancer RXF 393, 10 μM) of 31.4%. For the same compound, the inhibition at 10 µM (NCI 60 cancer cell lines; SF-268, CNS Cancer SF-268, 10 μM) was 42.7%, the inhibition at 10 µM (NCI 60 cancer cell lines; SF-295, CNS Cancer SF-295, 10 μM) was 8.09% and the inhibition at 10 µM (NCI 60 cancer cell lines; SF-539, CNS Cancer SF-539, 10 μM) was 58.4%. The inhibition at 10 µM (NCI 60 cancer cell lines; SK-MEL-2, Melanoma SK-MEL-2, 10 μM) was 80%, the inhibition at 10 µM (NCI 60 cancer cell lines; SK-MEL-5, Melanoma SK-MEL-5, 10 μM) was 45% and the inhibition at 10 µM (NCI 60 cancer cell lines; SK-MEL-28, Melanoma SK-MEL-28, 10 μM) was 65.3%. It also gave an inhibition at 10 µM (NCI 60 cancer cell lines; SK-OV-3, Ovarian cancer SK-OV-3, 10 μM) of 30.8%, an inhibition at 10 µM (NCI 60 cancer cell lines; SN12C, Renal cancer SN12C, 10 μM) of 38.8% and an inhibition at 10 µM (NCI 60 cancer cell lines; SNB-19, CNS Cancer SNB-19, 10 μM) of 54%. For the same compound, the inhibition at 10 µM (NCI 60 cancer cell lines; SNB-75, CNS Cancer SNB-75, 10 μM) was 78%, the inhibition at 10 µM (NCI 60 cancer cell lines; SW-620, Colon cancer SW-620, 10 μM) was 24.3% and the inhibition at 10 µM (NCI 60 cancer cell lines; T47D, Breast cancer T-47D, 10 μM) was 82.5%. It also gave an inhibition at 10 µM (NCI 60 cancer cell lines; TK-10, Renal cancer TK-10, 10 μM) of under 5%, an inhibition at 10 µM (NCI 60 cancer cell lines; U-251, CNS Cancer U251, 10 μM) of 62.1% and an inhibition at 10 µM (NCI 60 cancer cell lines; UACC-62, Melanoma UACC-62, 10 μM) of 88.6%. For the same compound, the inhibition at 10 µM (NCI 60 cancer cell lines; UACC-257, Melanoma UACC-257, 10 μM) was 33.7%, the inhibition at 10 µM (NCI 60 cancer cell lines; UO-31, Renal cancer UO-31, 10 μM) was 45.2% and the viability at 24 h, 0.4 µM ([2]; WI38, 0.4uM (log conc. -0.41)) was 83.2%. For the same compound, the viability at 24 h, 1.6 µM ([2]; WI38, 1.6uM (log conc. 0.19)) was 70.8%, the viability at 24 h, 6.3 µM ([2]; WI38, 6.3uM (log conc. 0.8)) was 61% and the viability at 24 h, 25 µM ([2]; WI38, 25uM (log conc. 1.4)) was 50.4%. For the same compound, the viability at 24 h, 100 µM ([2]; WI38, 100uM (log conc. 2)) was 42.1%, the IC50 (normal cell line WI-38; Homo sapiens, read-out: Antiproliferative activity IC50 ± SEM) was 29.6 ± 1.18 µM and the “% viability” value (normal cell line WI-38; WI38, 0.4uM (log conc. -0.41), listed as Ws5, 0.4 µM) was 83.1677%. The “% viability” value (normal cell line WI-38; WI38, 1.6uM (log conc. 0.19), listed as Ws5, 1.6 µM) was 70.8075%, the “% viability” value (normal cell line WI-38; WI38, 6.3uM (log conc. 0.8), listed as Ws5, 6.3 µM) was 60.9938% and the “% viability” value (normal cell line WI-38; WI38, 100uM (log conc. 2), listed as Ws5, 100 µM) was 42.1118%. The “% viability” value ([3]; HOP-92, MTT, 0.4uM, listed as Ws5, 0.4 µM) was 71.413%, the “% viability” value ([3]; HOP-92, MTT, 1.6uM, listed as Ws5, 1.6 µM) was 60.375% and the “% viability” value ([3]; HOP-92, MTT, 6.3uM, listed as Ws5, 6.3 µM) was 47.848%. The “% viability” value ([3]; HOP-92, MTT, 25uM, listed as Ws5, 25 µM) was 34.437%, the viability at 0.4 µM ([3]; Homo sapiens, HOP-92, HOP-92, MTT, 0.4uM, read-out: % viability) was 71.4% and the viability at 1.6 µM ([3]; Homo sapiens, HOP-92, HOP-92, MTT, 1.6uM, read-out: % viability) was 60.4%. The viability at 6.3 µM ([3]; Homo sapiens, HOP-92, HOP-92, MTT, 6.3uM, read-out: % viability) was 47.9%, the viability at 25 µM ([3]; Homo sapiens, HOP-92, HOP-92, MTT, 25uM, read-out: % viability) was 34.4% and the viability at 100 µM ([3]; Homo sapiens, HOP-92, HOP-92, MTT, 100uM, read-out: % viability) was 26.5%. It also gave an IC50 ([3]; Homo sapiens, HOP-92, HOP-92, concentration used in RT-PCR, read-out: IC50) of 4.98 µM, an IC50 ([3]; Homo sapiens, HOP-92, HOP-92, concentration used in apoptosis assay, read-out: Conc IC50) of 4.98 µM and an IC50 ([3]; Homo sapiens, HOP-92, HOP-92, concentration used in cell cycle analysis, read-out: IC50) of 4.98 µM. For the same compound, the IC50 ([3]; Homo sapiens, HOP-92, MTT, read-out: Antiproliferative activity IC50 ± SEM, HOP-92) was 4.98 ± 0.2 µM and the IC50 (BRAF^V600E) was 0.068 ± 0.003 µM.
